Experimental data: patent US12077503B2, “Substituted cyclic amides and their use as herbicides” (FMC CORPORATION, priority 2015, dated 2024)

Columns and labels:
Format in all cases: in vivo
[1] = test system: velvetleaf (Abutilon theophrasti); test: Test G Post-Emergence Protocol; details: Abutilon theophrasti, post-emergence, 312 h; for pest or weed control at 15.625 g/ha: 15.625 g ai/ha, evaluated after 13 days (100=total damage to plant; 0=no damage to plant), read-out: Velvetleaf damage rating; for pest or weed control at 62.5 g/ha: 62.5 g ai/ha, read-out: Velvetleaf damage rating (100=total damage to plant; 0=no damage to plant); for pest or weed control at 62.5 g/ha / pest or weed control at 250 g/ha: evaluated after 13 days; for pest or weed control at 250 g/ha: 250 g ai/ha, read-out: damage to plant, Velvetleaf (100=total damage to plant; 0=no damage to plant)
Procedure, shortened: (§1)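 Eight days post-sowing, plants received a spray of test compound (acetone/water 50:50, 0.5% Tween 20) at 15.625, 62.5 or 250 g/ha. Glasshouse regime thereafter: 24/16 °C, 14 h light, 65% humidity. Assessment after 13 days on a 0–100 damage scale.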

[2] = test system: ivy-leaved morning glory (Ipomoea hederacea); test: Test G Post-Emergence Protocol; details: Ipomoea, post-emergence, 312 h; for pest or weed control at 15.625 g/ha: 15.625 g ai/ha, evaluated after 13 days (100=total damage to plant; 0=no damage to plant), read-out: Morningglory, Ivy-leaved damage rating; for pest or weed control at 62.5 g/ha: 62.5 g ai/ha, read-out: Morningglory, Ivy-leaved damage rating (100=total damage to plant; 0=no damage to plant); for pest or weed control at 62.5 g/ha / pest or weed control at 250 g/ha: evaluated after 13 days; for pest or weed control at 250 g/ha: 250 g ai/ha, read-out: damage to plant, Morningglory, Ivy-leaved (100=total damage to plant; 0=no damage to plant)
Procedure, shortened: as §1

[3] = test system: redroot pigweed (Amaranthus retroflexus); test: Test G Post-Emergence Protocol; details: Amaranthus retroflexus, post-emergence, 312 h; for pest or weed control at 15.625 g/ha: 15.625 g ai/ha, evaluated after 13 days (100=total damage to plant; 0=no damage to plant), read-out: Pigweed, Redroot damage rating; for pest or weed control at 62.5 g/ha: 62.5 g ai/ha, read-out: Pigweed, Redroot damage rating (100=total damage to plant; 0=no damage to plant); for pest or weed control at 62.5 g/ha / pest or weed control at 250 g/ha: evaluated after 13 days; for pest or weed control at 250 g/ha: 250 g ai/ha, read-out: damage to plant, Pigweed, Redroot (100=total damage to plant; 0=no damage to plant)
Procedure, shortened: as §1

[4] = test system: giant foxtail (Setaria faberi); test: Test G Post-Emergence Protocol; details: Setaria faberi, post-emergence, 312 h; for pest or weed control at 15.625 g/ha: 15.625 g ai/ha, evaluated after 13 days (100=total damage to plant; 0=no damage to plant), read-out: Foxtail, Giant damage rating; for pest or weed control at 62.5 g/ha: 62.5 g ai/ha, read-out: Foxtail, Giant damage rating (100=total damage to plant; 0=no damage to plant); for pest or weed control at 62.5 g/ha / pest or weed control at 250 g/ha: evaluated after 13 days; for pest or weed control at 250 g/ha: 250 g ai/ha, read-out: damage to plant, Foxtail, Giant (100=total damage to plant; 0=no damage to plant)
Procedure, shortened: as §1

[5] = test system: corn (Zea mays); test: Test G Post-Emergence Protocol; details: Zea mays, post-emergence, 312 h; for plant injury at 15.625 g/ha: 15.625 g ai/ha, evaluated after 13 days (100=total damage to plant; 0=no damage to plant), read-out: Corn damage rating; for plant injury at 62.5 g/ha: 62.5 g ai/ha, read-out: Corn damage rating (100=total damage to plant; 0=no damage to plant); for plant injury at 62.5 g/ha / plant injury at 250 g/ha: evaluated after 13 days; for plant injury at 250 g/ha: 250 g ai/ha, read-out: damage to plant, Corn (100=total damage to plant; 0=no damage to plant)
Procedure, shortened: as §1

[6] = test system: barnyardgrass (Echinochloa crus-galli); test: Test G Post-Emergence Protocol; details: Echinochloa crus-galli, post-emergence, 312 h; for pest or weed control at 15.625 g/ha: 15.625 g ai/ha, evaluated after 13 days (100=total damage to plant; 0=no damage to plant), read-out: Barnyardgrass damage rating; for pest or weed control at 62.5 g/ha: 62.5 g ai/ha, read-out: Barnyardgrass damage rating (100=total damage to plant; 0=no damage to plant); for pest or weed control at 62.5 g/ha / pest or weed control at 250 g/ha: evaluated after 13 days; for pest or weed control at 250 g/ha: 250 g ai/ha, read-out: damage to plant, Barnyardgrass (100=total damage to plant; 0=no damage to plant)
Procedure, shortened: as §1

[7] = test system: velvetleaf (Abutilon theophrasti); test: Test G Pre-Emergence Protocol; details: Abutilon theophrasti, pre-emergence, 312 h, evaluated after 13 days; for pest or weed control at 15.625 g/ha: 15.625 g ai/ha; for pest or weed control at 15.625 g/ha / pest or weed control at 250 g/ha: read-out: Velvetleaf damage rating (100=total damage to plant; 0=no damage to plant); for pest or weed control at 62.5 g/ha: 62.5 g ai/ha, 100=total damage to plant, 0=no damage to plant, read-out: plant damage rating, Velvetleaf; for pest or weed control at 250 g/ha: 250 g ai/ha
Procedure, shortened: (§2)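 Pre-emergence spray, 15.625/62.5/250 g/ha, vehicle acetone:water 50:50 + 0.5% Tween 20, applied 1 d after sowing. Glasshouse 24/16° C, 14 h light, 65% RH, watered twice daily. Visual damage rating at 13 d, 0–100 scale.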

[8] = test system: ivy-leaved morning glory (Ipomoea hederacea); test: Test G Pre-Emergence Protocol; details: Ipomoea, pre-emergence, 312 h, evaluated after 13 days; for pest or weed control at 15.625 g/ha: 15.625 g ai/ha, read-out: Morning-glory, Ivy-leaved damage rating (100=total damage to plant; 0=no damage to plant); for pest or weed control at 62.5 g/ha: 62.5 g ai/ha, 100=total damage to plant, 0=no damage to plant, read-out: plant damage rating, Morningglory, Ivy-leaved; for pest or weed control at 250 g/ha: 250 g ai/ha, read-out: Morningglory, Ivy-leaved damage rating (100=total damage to plant; 0=no damage to plant)
Procedure, shortened: as §2

[9] = test system: redroot pigweed (Amaranthus retroflexus); test: Test G Pre-Emergence Protocol; details: Amaranthus retroflexus, pre-emergence, 312 h, evaluated after 13 days; for pest or weed control at 15.625 g/ha: 15.625 g ai/ha; for pest or weed control at 15.625 g/ha / pest or weed control at 250 g/ha: read-out: Pigweed, Redroot damage rating (100=total damage to plant; 0=no damage to plant); for pest or weed control at 62.5 g/ha: 62.5 g ai/ha, 100=total damage to plant, 0=no damage to plant, read-out: plant damage rating, Pigweed, Redroot; for pest or weed control at 250 g/ha: 250 g ai/ha
Procedure, shortened: as §2

[10] = test system: giant foxtail (Setaria faberi); test: Test G Pre-Emergence Protocol; details: Setaria faberi, pre-emergence, 312 h, evaluated after 13 days; for pest or weed control at 15.625 g/ha: 15.625 g ai/ha; for pest or weed control at 15.625 g/ha / pest or weed control at 250 g/ha: read-out: Foxtail, Giant damage rating (100=total damage to plant; 0=no damage to plant); for pest or weed control at 62.5 g/ha: 62.5 g ai/ha, 100=total damage to plant, 0=no damage to plant, read-out: plant damage rating, Foxtail, Giant; for pest or weed control at 250 g/ha: 250 g ai/ha
Procedure, shortened: as §2

[11] = test system: corn (Zea mays); test: Test G Pre-Emergence Protocol; details: Zea mays, pre-emergence, 312 h, evaluated after 13 days; for plant injury at 15.625 g/ha: 15.625 g ai/ha; for plant injury at 15.625 g/ha / plant injury at 250 g/ha: read-out: Corn damage rating (100=total damage to plant; 0=no damage to plant); for plant injury at 62.5 g/ha: 62.5 g ai/ha, 100=total damage to plant, 0=no damage to plant, read-out: plant damage rating, Corn; for plant injury at 250 g/ha: 250 g ai/ha
Procedure, shortened: as §2

[12] = test system: barnyardgrass (Echinochloa crus-galli); test: Test G Pre-Emergence Protocol; details: Echinochloa crus-galli, pre-emergence, 312 h, evaluated after 13 days; for pest or weed control at 15.625 g/ha: 15.625 g ai/ha, read-out: Barnyard grass damage rating (100=total damage to plant; 0=no damage to plant); for pest or weed control at 62.5 g/ha: 62.5 g ai/ha, 100=total damage to plant, 0=no damage to plant, read-out: plant damage rating, Barnyardgrass; for pest or weed control at 250 g/ha: 250 g ai/ha, read-out: Barnyardgrass damage rating (100=total damage to plant; 0=no damage to plant)
Procedure, shortened: as §2

SMILES	pest or weed control at 15.625 g/ha [1] [%]	pest or weed control at 62.5 g/ha [1] [%]	pest or weed control at 250 g/ha [1] [%]	pest or weed control at 15.625 g/ha [2] [%]	pest or weed control at 62.5 g/ha [2] [%]	pest or weed control at 250 g/ha [2] [%]	pest or weed control at 15.625 g/ha [3] [%]	pest or weed control at 62.5 g/ha [3] [%]	pest or weed control at 250 g/ha [3] [%]	pest or weed control at 15.625 g/ha [4] [%]	pest or weed control at 62.5 g/ha [4] [%]	pest or weed control at 250 g/ha [4] [%]	plant injury at 15.625 g/ha [5] [%]	plant injury at 62.5 g/ha [5] [%]	plant injury at 250 g/ha [5] [%]	pest or weed control at 15.625 g/ha [6] [%]	pest or weed control at 62.5 g/ha [6] [%]	pest or weed control at 250 g/ha [6] [%]	pest or weed control at 15.625 g/ha [7] [%]	pest or weed control at 62.5 g/ha [7] [%]	further results
CN1C[C@H](c2ccc(C(F)(F)F)cc2)[C@@H](C(=O)Nc2ccc(F)c(F)c2)C1=O (racemic) [Compound 1412]	0	40	40	0	0	20	30	40	40	0	60	70	20	10	10	0	50	60	0	0	pest or weed control at 250 g/ha [7]: 10%; pest or weed control at 15.625 g/ha [8]: 0%; pest or weed control at 62.5 g/ha [8]: 0%; pest or weed control at 250 g/ha [8]: 0%; pest or weed control at 15.625 g/ha [9]: 20%; pest or weed control at 62.5 g/ha [9]: 20%; pest or weed control at 250 g/ha [9]: 10%; pest or weed control at 15.625 g/ha [10]: 10%; pest or weed control at 62.5 g/ha [10]: 50%; pest or weed control at 250 g/ha [10]: 80%; plant injury at 15.625 g/ha [11]: 0%; plant injury at 62.5 g/ha [11]: 10%; plant injury at 250 g/ha [11]: 10%; pest or weed control at 15.625 g/ha [12]: 0%; pest or weed control at 62.5 g/ha [12]: 30%; pest or weed control at 250 g/ha [12]: 60%
Cc1cccc(NC(=O)[C@H]2C(=O)N(C)C[C@@H]2c2ccc(C(F)(F)F)cc2)c1C#N (racemic) [Compound 1413]	0	0	10	0	0	0	0	10	20	40	70	70	0	0	0	20	50	60	0	0	pest or weed control at 250 g/ha [7]: 0%; pest or weed control at 15.625 g/ha [8]: 0%; pest or weed control at 62.5 g/ha [8]: 0%; pest or weed control at 250 g/ha [8]: 0%; pest or weed control at 15.625 g/ha [9]: 0%; pest or weed control at 62.5 g/ha [9]: 20%; pest or weed control at 250 g/ha [9]: 20%; pest or weed control at 15.625 g/ha [10]: 0%; pest or weed control at 62.5 g/ha [10]: 60%; pest or weed control at 250 g/ha [10]: 90%; plant injury at 15.625 g/ha [11]: 0%; plant injury at 62.5 g/ha [11]: 0%; plant injury at 250 g/ha [11]: 0%; pest or weed control at 15.625 g/ha [12]: 0%; pest or weed control at 62.5 g/ha [12]: 20%; pest or weed control at 250 g/ha [12]: 80%
C#Cc1ccccc1NC(=O)[C@H]1C(=O)N(C)C[C@@H]1c1ccc(C(F)(F)F)cc1 (racemic) [Compound 1422]	0	0	0	0	0	0	0	0	0	0	0	20	10	10	0	0	0	0	0	0	pest or weed control at 250 g/ha [7]: 0%; pest or weed control at 15.625 g/ha [8]: 0%; pest or weed control at 62.5 g/ha [8]: 0%; pest or weed control at 250 g/ha [8]: 0%; pest or weed control at 15.625 g/ha [9]: 0%; pest or weed control at 62.5 g/ha [9]: 0%; pest or weed control at 250 g/ha [9]: 0%; pest or weed control at 15.625 g/ha [10]: 0%; pest or weed control at 62.5 g/ha [10]: 10%; pest or weed control at 250 g/ha [10]: 50%; plant injury at 15.625 g/ha [11]: 0%; plant injury at 62.5 g/ha [11]: 0%; plant injury at 250 g/ha [11]: 0%; pest or weed control at 15.625 g/ha [12]: 0%; pest or weed control at 62.5 g/ha [12]: 0%; pest or weed control at 250 g/ha [12]: 0%
